From US11638427B2, “Methods and compositions for altering secondary metabolites in plants” (Impello Biosciences, Inc, priority 2020, dated 2023)

Assays:
[1] = test system: high-CBD hemp varieties Stormy Daniels and BaOX; experiment: Field foliar applications of MDJ, MeJA and CJ on high-CBD hemp, cannabinoid analysis; format: in vivo, Cannabis spp.; conditions: 7.5 mM foliar, four applications every 14 days in flowering
Description: However, MDJ is not known to have any significant bioactivity in planta and is not an endogenously produced phytohormone in cannabis, so it was unknown whether MDJ would afford the same functionality as MeJA. Similarly, CJ has likewise been relatively under-investigated as a plant elicitor despite being a decarboxylation product of Jasmonic Acid. Here, the effect of MDJ and CJ were analyzed (in addition to MeJA) in order to determine any difference in the effect of these treatments on field-grown high-CBD hemp varieties.
A hemp field experiment was conducted during the flowering phase of plant development in a private research field located in North Carolina. Sixty (60) plants from two distinct plant variety populations, Stormy Daniels and BaOX were selected for the trial. Each group of 60 plants was randomly divided into three groups of 20 plants and labeled accordingly to indicate the treatment group (T1, T2, T3). All plants were cultivated identically and subjected to approximately the same environmental conditions. Control, untreated plants were taken from the same field. Plants were treated according to treatment group, and each treatment group was subjected to four (4) applications of its respective treatment, with the first treatments applied on what was considered to be the first day of the flowering phase and repeated then again every successive 14 days up until just prior to harvest. Treatments were as follows: Control group=Control, Treatment 1=MDJ, Treatment 2=MeJA, Treatment 3=CJ.
All treatments were prepared in a stock (concentrated, non-aqueous) form by Impello Biosciences in their lab in Loveland, Colo. and labelled respectively prior to the start of the experiment. All treatments were prepared at a high stock concentration that allowed dilution by the applicator with 2 liters of water to a final 7.5 mM concentration of active ingredient (i.e., MeJA, MDJ, or CJ) for each treatment; 15-mL centrifuge tubes were used as preparation and storage vessels for each of the treatments. Preparation of the stock solutions ensured that the applicator could store the solutions prior to use at 4° C. to minimize degradation and allow for dilution immediately prior to use. In the stock containers, 2 mL of TWEEN®-20 was added to each respective elicitor compound as an emulsifier in order to reach a final oil-in-water emulsion once diluted with a concentration of 7.5 mM active ingredient and 0.1% surfactant (i.e., TWEEN®-20) v/v.
Plants were grown to maturity and 5 plants from each treatment and control group were sampled on Sep. 23, 2019. Care was taken to ensure samples were similar in appearance and spatial location between plants to minimize unintended variance in sample quality. The apical cola for each plant was harvested, and specifically, the top 3″ of the main cola. Yield data was not collected in this study, but no obvious differences in plant size or appearance were noted. Samples were submitted for chemical analysis (Avazyme, Inc, NC).
All models were linear models fit with Group (treatment) as the independent variable and the response variable was the corresponding compound. Data was filtered and comparison between treatments were conducted using the emmeans package and Tukey HSD for post-hoc corrections. Statistical significance was defined by a level of significance of p<0.05 in the Tukey test. Total cannabinoids included CBN, Δ9-THC, CBDV, CBG, CBD, CBC, CBDA, CBGA, THCA, and THCV. Total THC and total CBD were calculated by accounting for the additional weight of the carboxyl group in the acidic forms and adding those to the neutral/non-acidic forms.

[2] = test system: marijuana variety Lemon Creamsicle; experiment: Foliar spray of CJ or MDJ on high-THC marijuana in greenhouse, cannabinoid analysis; format: in vivo, Cannabis spp.; conditions: 7.5 mM foliar spray every 14 days, four treatments
Description: Applicant's previous experiments investigated the effects of jasmonate-type elicitors MeJA, MDJ, and CJ on hemp (high fiber) and high-CBD, (low-THC) varieties of Cannabis. […] Here, the effects of MDJ and CJ application on a high-THC variety in a controlled environment was investigated. High-THC, low-CBD marijuana variety “Lemon Creamsicle” (LC), was grown in a greenhouse setting. LC was used as a plant model due to its historically consistent metabolite profile in the greenhouse environment, making it a stable, known, and reliable variety.
A four-block plant trial was implemented with a population of N=12 plants and treatment group sizes of n=4. The treatment and control groups were defined as follows: Control=water+0.1% TWEEN®-20 aqueous foliar spray, Treatment 1=[7.5 mM] CJ+0.1% TWEEN®-20 aqueous foliar spray, Treatment 2=[7.5 mM] MDJ+0.1% TWEEN®-20 aqueous foliar spray. A standardized concentration of [7.5 mM] for both CJ and MDJ applications was chosen due to its performance in Applicant's past research. All treatment solutions were prepared the day of the application in equal volumes from pre-measured quantities of the stock materials to ensure consistency, i.e., appropriate volumes of CJ or MDJ were combined with appropriate volumes of TWEEN®-20 for each experimental treatment, stored in a sealed centrifuge tube, and diluted in the appropriate amount of water immediately prior to application. Separate sprayers were used for each treatment and control sprays to avoid cross-contamination.
All plants in the trial were produced as asexual clone stock taken from the same mother plant at the same time to ensure homogeneity. All plants were rooted and grown in accordance with the production practices typical to this greenhouse operator prior to plant selection for the experiment. Due to the layout of the cultivation system, which features immovable hydroponic “pots” that house the plant throughout the entire flowering (i.e., reproductive) phase, all plants included in the experiment were selected from a set section of the greenhouse after final transplant into the hydroponic system and grouped in a complete randomized block design accordingly.
After defining the plants to include in the experiment, which were organized in two (2) rows of six (6) plants side-by-side in the hydroponic system, the experimental blocks were defined as groups of three plants, and a research randomizer tool (randomizer.org) was used to generate a randomized arrangement of plants in each group. Using a blocked design in this setting helped account for the immovable nature of the plants and the slight, if any, environmental differences (like natural sunlight, shading from other plants, and corner/edge effect) that existed in the small experimental area. Blocking the experimental arrangement also allowed for improved statistical analysis and resolution considering the small sample size and close proximity of the experimental plants.
After labelling each plant in the experiment with the appropriate group label (Control, T1 [CJ], or T2 [MDJ]), the plants were allowed to grow normally between treatment applications, which were performed every 14 days for a total of four (4) treatments throughout the flowering cycle, which lasted approximately eight (8) weeks. The first treatment occurred seven (7) days after the onset of the flowering cycle, which was dictated by day-length control. Care was taken with each treatment application to minimize overspray onto non-target neighboring plants, and physical barriers were temporarily installed between plants during treatment sprays to aid in this effort. These barriers were removed following treatment sprays when the foliage was no longer visibly wet from the treatment and/or control foliar sprays. […]

oyster mushroom = experiment: Fungal plug growth on jasmonate-infused PDA plates; format: cell-based; conditions: all concentrations (1 mM, 4.25 mM, 10 mM) in PDA; 72 hours and 10 days
Description: (§1) MDJ (TCI, CAS No.: 24851-98-7) and CJ were infused into potato dextrose agar (PDA, VWR Cat No.: 90003-494) petri dishes (100×15 mm VWR, Cat No: 25384-094) at concentrations ranging from 1 mM, 4.25 mM, and 10 mM. Each treatment was prepared using a technical grade stock solution of pure chemical (CJ or MDJ) diluted with TWEEN®-20 (VWR, CAS No.: […]). Culturable oyster mushroom and seedling mold served to create fungal mycelial plugs using a sterile 1 mL pipette tip (Eppendorf, Cat No.: 022491458) held upside down. The tips were used to make circle excisions (i.e., fungal plugs) from a mycelial mat grown on PDA with no biochemical infusions. Fungal pugs were then transferred to PDA infused with varying concentrations of CJ or MDJ, and control plates (no CJ or MDJ infusion) to monitor fungal growth at room temperature over time.

seedling mold = experiment: Fungal plug growth on jasmonate-infused PDA plates; format: cell-based, Trichoderma ghanense; conditions: all concentrations (1 mM, 4.25 mM, 10 mM) in PDA; 72 hours and 10 days
Description: as §1
To compare the efficacy of MDJ and MeJA at inhibiting the same seedling mold as used in the experiment above, a second experiment was conducted using PDA plates infused with either MDJ or MeJA at different concentrations. All plates were generated and inoculated as described above and incubated at room temperature under identical conditions. Shown in FIGS. 9A-9C are plates of seedling mold 72 hours post fungal inoculation. Control plates are shown on the top row, followed by concentrations of MeJA (left) and MDJ (right) in duplicate at 1 mM (FIG. 9A), 4.25 mM (FIG. 9B), and 10 mM (FIG. 9C). […] Subsequent sequence analysis identified the “seedling mold” as Trichoderma ghanense.

CC/C=C\CC1=C(C)CCC1=O [CJ, cis-jasmone]
CBDA increase relative to the control group [1]: 23.61% | THCA increase relative to the control group [1]: 27.23% | Total CBD increase relative to the control group [1]: 23.64% | Total Cannabinoids increase relative to the control group [1]: 22.92% | Total THC increase relative to the control group [1]: 27.09% | CBGA average relative percent increase compared to the Control group [2]: 11.22% | THCA average relative percent increase compared to the Control group [2]: 1.13% | Total Cannabinoids average relative percent increase compared to the Control group [2]: 1.17% | Total THC average relative percent increase compared to the Control group [2]: 1.03% | Oyster mushroom fungal growth compared to control (oyster mushroom): showed inhibition | seedling mold growth compared to control (seedling mold): showed inhibition
